Values of other authors, collected in patent US9573873B2, “Catalytic method for dibenzocycloheptane synthesis and allocolchicinoid synthesis” (UNIVERSITY OF WINDSOR, priority 2014, dated 2017).

Conditions: Phase 2 clinical testing; background statement

COc1cc2c(c(OC)c1OC)-c1ccc(OP(=O)(O)O)cc1[C@@H](NC(C)=O)CC2 [ZD 6126, N-Acetylcolchicinol dihydrogen phosphate]
cardiotoxicity: failed in Phase 2 clinical testing because of this cardiotoxicity
